Measurements as given in PubChem BioAssay AID330 (DTP/NCI, 2004).
Values joined by “and” are separate entries in the source; they are usually repeats but may differ in a detail not shown here. Identical values can stand only once. Toxic doses and inconclusive results are not listed.

System: P388 leukemia ip, CD2F1 mice, survival T/C
Test: NCI In Vivo Anticancer Drug Screen. Data for tumor model P388 Leukemia (intraperitoneal) in CD2F1 (CDF1) mice
Settings: endpoint: median survival time, higher = longer survival
Procedure, shortened: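 Mice carrying the transplanted tumor received test compound or vehicle. Survival was recorded in each group, and the value is the treated-group measurement divided by that of the vehicle-treated control group.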

[1] = dose: 100.0 mg/kg/injection, schedule: Q04DX003 (ip), vehicle: saline with Tween-80
[2] = dose: 200.0 mg/kg/injection, schedule: Q04DX003 (ip), vehicle: saline with Tween-80
[3] = dose: 6.25 mg/kg/injection, schedule: Q01DX005 (ip), vehicle: saline
[4] = dose: 12.5 mg/kg/injection, schedule: Q01DX005 (ip), vehicle: Klucel (hydroxypropylcellulose) (HPC)
[5] = dose: 25.0 mg/kg/injection, schedule: Q01DX005 (ip), vehicle: Klucel (hydroxypropylcellulose) (HPC)
[6] = dose: 50.0 mg/kg/injection, schedule: Q01DX005 (ip), vehicle: Klucel (hydroxypropylcellulose) (HPC)
[7] = dose: 50.0 mg/kg/injection, schedule: Q01DX009 (ip), vehicle: Klucel (hydroxypropylcellulose) (HPC)
[8] = dose: 100.0 mg/kg/injection, schedule: Q01DX009 (ip), vehicle: Klucel (hydroxypropylcellulose) (HPC)
[9] = dose: 200.0 mg/kg/injection, schedule: Q01DX009 (ip), vehicle: Klucel (hydroxypropylcellulose) (HPC)
[10] = dose: 25.0 mg/kg/injection, schedule: Q01DX005 (ip), vehicle: saline with Tween-80
[11] = dose: 50.0 mg/kg/injection, schedule: Q01DX005 (ip), vehicle: saline with Tween-80
[12] = dose: 100.0 mg/kg/injection, schedule: Q01DX005 (ip), vehicle: Klucel (hydroxypropylcellulose) (HPC)
[13] = dose: 60.0 mg/kg/injection, schedule: Q01DX005 (ip), vehicle: saline with Tween-80
[14] = dose: 120.0 mg/kg/injection, schedule: Q01DX005 (ip), vehicle: saline with Tween-80
[15] = dose: 240.0 mg/kg/injection, schedule: Q01DX005 (ip), vehicle: saline with Tween-80

With O=C(N/N=C/c1ccc(O)cc1O)c1cccnc1 the T/C (dose: 12.5 mg/kg/injection, schedule: Q01DX009 (ip), vehicle: olive oil, sesame oil, peanut oil) was 106 % of control, the T/C (dose: 25.0 mg/kg/injection, schedule: Q01DX009 (ip), vehicle: olive oil, sesame oil, peanut oil) was 105 % of control and the T/C (dose: 50.0 mg/kg/injection, schedule: Q01DX009 (ip), vehicle: olive oil, sesame oil, peanut oil) was 121 % of control. For the same compound, the T/C (dose: 50.0 mg/kg/injection, schedule: Q01DX009 (oral), vehicle: saline with Tween-80) was 108 % of control, the T/C (dose: 100.0 mg/kg/injection, schedule: Q01DX009 (ip), vehicle: olive oil, sesame oil, peanut oil) was 102 % of control and the T/C (dose: 100.0 mg/kg/injection, schedule: Q01DX009 (oral), vehicle: saline with Tween-80) was 108 % of control. For the same compound, the T/C (dose: 200.0 mg/kg/injection, schedule: Q01DX009 (oral), vehicle: saline with Tween-80) was 101 % of control and the T/C (dose: 400.0 mg/kg/injection, schedule: Q01DX009 (oral), vehicle: saline with Tween-80) was 105 % of control.

In the case of CC1(C)c2ccccc2Nc2ccccc21, the T/C [1] is reported as 100 % of control and the T/C [2] is reported as 91 % of control.

In the case of CO[C@H]1/C=C/O[C@@]2(C)Oc3c(C)c(O)c4c(O)c(c(/C=N/N5CCCN(Cc6ccccc6)CC5)c(O)c4c3C2=O)NC(=O)/C(C)=C\C=C\[C@H](C)[C@H](O)C(C)[C@@H](O)C(C)[C@H](OC(C)=O)[C@@H]1C (stereo partly specified), the T/C (dose: 25.0 mg/kg/injection, schedule: Q01DX009 (ip), vehicle: suspension in saline) is reported as 107 % of control.

In the case of COc1cccc2c1C(=O)c1c(O)c3c(c(O)c1C2=O)C[C@@](O)(C(=O)CO)C[C@@H]3OC1CC([N+](C)(C)C)C(O)C(C)O1 (stereo partly specified), the T/C (dose: 3.89 mg/kg/injection, schedule: Q04DX003 (ip), vehicle: water) is reported as 105 % of control, the T/C (dose: 6.48 mg/kg/injection, schedule: Q04DX003 (ip), vehicle: water) is reported as 109 % of control and the T/C (dose: 12.5 mg/kg/injection, schedule: Q01DX001 (ip), vehicle: water) is reported as 112 % of control. The T/C (dose: 12.5 mg/kg/injection, schedule: Q01DX009 (ip), vehicle: water) was 160 % of control and 187 % of control and the T/C (dose: 30.0 mg/kg/injection, schedule: Q04DX003 (ip), vehicle: water) was 150 % of control.

With CCOC(=O)/C(=C/C(C#N)=C/N(C)C)CC the T/C (dose: 50.0 mg/kg/injection, schedule: Q04DX003 (ip), vehicle: saline with Tween-80) was 104 % of control, the T/C [1] was 95 % of control and the T/C [2] was 109 % of control.

For C[C@H](N)[C@H](O)c1cccc(O)c1, the T/C (dose: 1.5 mg/kg/injection, schedule: Q01DX005 (ip), vehicle: saline) was 103 % of control, the T/C (dose: 3.0 mg/kg/injection, schedule: Q01DX005 (ip), vehicle: saline) was 99 % of control and the T/C (dose: 6.0 mg/kg/injection, schedule: Q01DX005 (ip), vehicle: saline) was 110 % of control. The T/C [3] was 115 % of control and the T/C (dose: 25.0 mg/kg/injection, schedule: Q01DX005 (ip), vehicle: saline) was 100 % of control.

In the case of CN(C)CCCOc1cccc(NC2=C(Cl)C(=O)C(Nc3cccc(OCCCN(C)C)c3)=C(Cl)C2=O)c1, the T/C (dose: 6.25 mg/kg/injection, schedule: Q01DX005 (ip), vehicle: Klucel (hydroxypropylcellulose) (HPC)) is reported as 99 % of control, the T/C [4] is reported as 100 % of control and the T/C [5] is reported as 109 % of control. For the same compound, the T/C [6] was 100 % of control.

In the case of O=C(Oc1ccccc1)OC1CCCN(C(=O)Oc2ccccc2)C1 (stereo unspecified), the T/C [7] is reported as 93 % of control, the T/C [8] is reported as 93 % of control and the T/C [9] is reported as 93 % of control.

In the case of Cc1c(C)c2ccc(N(C)C)cc2[nH]c1=O, the T/C [7] is reported as 113 % of control, the T/C [8] is reported as 106 % of control and the T/C [9] is reported as 106 % of control.

With O=S1(=O)CC2=C(C1)C1C=CC2C2C=CC12 (stereo unspecified) the T/C (dose: 25.0 mg/kg/injection, schedule: Q04DX003 (ip), vehicle: saline) was 98 % of control, the T/C (dose: 50.0 mg/kg/injection, schedule: Q04DX003 (ip), vehicle: saline) was 101 % of control and the T/C (dose: 100.0 mg/kg/injection, schedule: Q04DX003 (ip), vehicle: saline) was 107 % of control and 96 % of control.

CCOC(=O)c1cc(Cl)cc2c(=O)c3c([nH]c12)C(=O)c1c([nH]c2c(C(=O)OCC)cc(Cl)cc2c1=O)C3=O was tested, and the T/C [7] was 99 % of control, the T/C [8] was 105 % of control and the T/C [9] was 98 % of control.

For C[SiH]12(OC(C(F)(F)F)(C(F)(F)F)c3ccccc31)OC(C(F)(F)F)(C(F)(F)F)c1ccccc12, the T/C [10] was 100 % of control and the T/C [11] was 102 % of control.

With CN(C)Cc1cc2c(=O)[nH]c(N)nc2[nH]1 the T/C (dose: 100.0 mg/kg/injection, schedule: Q01DX001 (ip), vehicle: Klucel (hydroxypropylcellulose) (HPC)) was 101 % of control and the T/C (dose: 200.0 mg/kg/injection, schedule: Q01DX001 (ip), vehicle: Klucel (hydroxypropylcellulose) (HPC)) was 104 % of control.

For O=[N+]([O-])c1cnccc1Nc1ccncc1, the T/C (dose: 100.0 mg/kg/injection, schedule: Q01DX001 (ip), vehicle: saline with Tween-80) was 100 % of control and the T/C (dose: 200.0 mg/kg/injection, schedule: Q01DX001 (ip), vehicle: saline with Tween-80) was 100 % of control.

In the case of O=C1c2ccccc2C(C2c3ccccc3C(=O)c3cc(Br)ccc32)c2ccc(Br)cc21 (stereo unspecified), the T/C [4] is reported as 88 % of control, the T/C [5] is reported as 97 % of control and the T/C [6] is reported as 90 % of control. The T/C [12] was 86 % of control.

With COc1ccc(C(=O)O[C@H]2CC[C@@]3(C)[C@@H]4CC[C@H]5[C@]6(O)C[C@H](O)[C@@]7(O)[C@@H](CN8C[C@@H](C)CC[C@H]8[C@@]7(C)O)[C@]6(O)C[C@@]53OC24O)cc1OC the T/C (dose: 3.12 mg/kg/injection, schedule: Q01DX005 (ip), vehicle: saline) was 95 % of control, the T/C [3] was 95 % of control and the T/C (dose: 12.5 mg/kg/injection, schedule: Q01DX005 (ip), vehicle: saline) was 97 % of control.

C/C=C\n1ccccc1=O was tested, and the T/C (dose: 50.0 mg/kg/injection, schedule: Q01DX009 (ip), vehicle: saline) was 107 % of control, the T/C (dose: 100.0 mg/kg/injection, schedule: Q01DX009 (ip), vehicle: saline) was 113 % of control and the T/C (dose: 200.0 mg/kg/injection, schedule: Q01DX009 (ip), vehicle: saline) was 109 % of control.

CC12CCC3c4ccc(O)cc4CCC3C1CCC2(O)CN1CCCCC1 (stereo unspecified) was tested, and the T/C [6] was 96 % of control and the T/C [12] was 91 % of control.

For O=C1C2C3CC(c4ccccc43)C2N1S(=O)(=O)Cl (stereo unspecified), the T/C [13] was 107 % of control, the T/C [14] was 106 % of control and the T/C [15] was 114 % of control.

For COc1cc(-c2cc(=O)c3c(O)cc(O)cc3o2)cc(OC)c1O, the T/C (dose: 5.0 mg/kg/injection, schedule: Q01DX009 (ip), vehicle: Klucel (hydroxypropylcellulose) (HPC)) was 100 % of control, the T/C (dose: 10.0 mg/kg/injection, schedule: Q01DX009 (ip), vehicle: Klucel (hydroxypropylcellulose) (HPC)) was 98 % of control and the T/C (dose: 20.0 mg/kg/injection, schedule: Q01DX009 (ip), vehicle: Klucel (hydroxypropylcellulose) (HPC)) was 100 % of control. The T/C (dose: 40.0 mg/kg/injection, schedule: Q01DX009 (ip), vehicle: Klucel (hydroxypropylcellulose) (HPC)) was 90 % of control.

O=C(NCO)NS(=O)(=O)c1ccc(N2C(=O)c3ccccc3C2=O)cc1 was tested, and the T/C [7] was 103 % of control, the T/C [8] was 107 % of control and the T/C [9] was 112 % of control.

For CC1=NN(c2ccccc2)[As]2ON=C(c3ccc(Cl)cc3)C12 (stereo unspecified), the T/C [6] was 102 % of control, the T/C [12] was 103 % of control and the T/C (dose: 200.0 mg/kg/injection, schedule: Q01DX005 (ip), vehicle: Klucel (hydroxypropylcellulose) (HPC)) was 108 % of control.

Cc1ccc([NH-])c(C(=O)O)c1.Cc1ccc([NH-])c(C(=O)O)c1.[Cu+2] was tested, and the T/C (dose: 12.5 mg/kg/injection, schedule: Q01DX005 (ip), vehicle: saline with Tween-80) was 96 % of control, the T/C [10] was 100 % of control and the T/C [11] was 94 % of control.

N#Cc1c(C(=O)NN)cc(-c2cccc3ccccc23)[nH]c1=O was tested, and the T/C [11] was 107 % of control and the T/C (dose: 100.0 mg/kg/injection, schedule: Q01DX005 (ip), vehicle: saline with Tween-80) was 103 % of control.

For CSC(C=C1C=CN(CC(=O)c2ccccc2)C=C1)=C(C#N)C#N, the T/C (dose: 25.0 mg/kg/injection, schedule: Q04DX002 (ip), vehicle: saline with Tween-80) was 97 % of control, the T/C (dose: 50.0 mg/kg/injection, schedule: Q04DX002 (ip), vehicle: saline with Tween-80) was 102 % of control and the T/C (dose: 100.0 mg/kg/injection, schedule: Q04DX002 (ip), vehicle: saline with Tween-80) was 99 % of control.

With c1ccc(-c2csc(-c3nc(-c4ccccc4)cs3)n2)cc1 the T/C (dose: 25.0 mg/kg/injection, schedule: Q01DX009 (ip), vehicle: Klucel (hydroxypropylcellulose) (HPC)) was 117 % of control, the T/C [7] was 113 % of control and the T/C [13] was 99 % of control. The T/C [8] was 118 % of control, the T/C [14] was 96 % of control and the T/C [9] was 110 % of control. For the same compound, the T/C [15] was 96 % of control.
